Several values for one entry are separate records, joined by “and”; a condition that tells them apart may be missing. Identical values can stand only once. Toxic doses and inconclusive results are not listed. How the source made its calls: active means survival T/C of 150% or more; inactive means T/C below 125% in these data. Peptide text beside a SMILES is read from it. * marks the point of attachment. Boc = CC(C)(C)OC(=O)*
Tested on: P388 leukemia ip, CD2F1 mice, survival T/C
Assay: NCI In Vivo Anticancer Drug Screen. Data for tumor model P388 Leukemia (intraperitoneal) in CD2F1 (CDF1) mice
Conditions: endpoint: median survival time, higher = longer survival
Outline: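 Mice carrying the transplanted tumor received test compound or vehicle. Survival was recorded in each group, and the value is the treated-group measurement divided by that of the vehicle-treated control group.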

[1] = dose: 100.0 mg/kg/injection, schedule: Q04DX002 (ip), vehicle: saline with Tween-80
[2] = dose: 200.0 mg/kg/injection, schedule: Q04DX002 (ip), vehicle: saline with Tween-80
[3] = dose: 100.0 mg/kg/injection, schedule: Q01DX009 (ip), vehicle: saline
[4] = dose: 200.0 mg/kg/injection, schedule: Q01DX009 (ip), vehicle: saline
[5] = dose: 50.0 mg/kg/injection, schedule: Q01DX009 (ip), vehicle: saline
[6] = dose: 60.0 mg/kg/injection, schedule: Q01DX005 (ip), vehicle: saline
[7] = dose: 15.0 mg/kg/injection, schedule: Q01DX005 (ip), vehicle: saline

Measured: T/C

CC/C(=C\c1ccccc1)[N+](=O)[O-]
inactive: dose: 12.5 mg/kg/injection, schedule: Q01DX009 (ip), vehicle: saline with Tween-80 103 % of control | dose: 25.0 mg/kg/injection, schedule: Q01DX009 (ip), vehicle: saline with Tween-80 123 % of control

COc1ccccc1/C(=N/Nc1ccccc1)[N+](=O)[O-]
inactive: dose: 50.0 mg/kg/injection, schedule: Q01DX009 (ip), vehicle: saline + Tween-80 + alcohol 106 % of control | dose: 100.0 mg/kg/injection, schedule: Q01DX009 (ip), vehicle: saline + Tween-80 + alcohol 101 % of control | dose: 200.0 mg/kg/injection, schedule: Q01DX009 (ip), vehicle: saline + Tween-80 + alcohol 109 % of control

COc1ccc2nccc(C(=O)CCC3CCN(C(=O)c4ccc([N+](=O)[O-])cc4)CC3C(Br)CBr)c2c1 (configuration not stated)
inactive: [1] 108 % of control | [2] 105 % of control

COC(=O)C(CO)NC(=O)C(Cc1ccccc1)NC(=O)OC(C)(C)C (stereo not drawn) (Boc-Phe-Ser-OMe; configuration not given here)
inactive: dose: 50.0 mg/kg/injection, schedule: Q01DX005 (ip), vehicle: Klucel (hydroxypropylcellulose) (HPC) 99 % of control | dose: 100.0 mg/kg/injection, schedule: Q01DX005 (ip), vehicle: Klucel (hydroxypropylcellulose) (HPC) 105 % of control | dose: 200.0 mg/kg/injection, schedule: Q01DX005 (ip), vehicle: Klucel (hydroxypropylcellulose) (HPC) 100 % of control

Cc1cccc(=N)n1CCC(=O)O
inactive: [3] 90 % of control | [4] 100 % of control

Cn1nnc(-c2nnnn2N)n1
inactive: [5] 95 % of control | [3] 94 % of control | [4] 94 % of control

COC1OC(CO)C(O)C2OCCOCCOC3C(OC)OC(CO)C(O)C3OCCOCCOC12 (configuration not stated)
inactive: [6] 103 % of control | dose: 120.0 mg/kg/injection, schedule: Q01DX005 (ip), vehicle: saline 101 % of control | dose: 240.0 mg/kg/injection, schedule: Q01DX005 (ip), vehicle: saline 97 % of control

COc1cccc(N2C(=O)CSC2=S)c1
inactive: dose: 100.0 mg/kg/injection, schedule: Q04DX003 (ip), vehicle: saline with Tween-80 95 % of control | dose: 200.0 mg/kg/injection, schedule: Q04DX003 (ip), vehicle: saline with Tween-80 100 % of control | dose: 400.0 mg/kg/injection, schedule: Q04DX003 (ip), vehicle: saline with Tween-80 90 % of control

Nc1ccc2c(c1)C(=O)N(OS(=O)(=O)c1ccccc1)C2=O
inactive: dose: 60.0 mg/kg/injection, schedule: Q01DX005 (ip), vehicle: saline with Tween-80 106 % of control | dose: 120.0 mg/kg/injection, schedule: Q01DX005 (ip), vehicle: saline with Tween-80 107 % of control | dose: 240.0 mg/kg/injection, schedule: Q01DX005 (ip), vehicle: saline with Tween-80 88 % of control

CNC(=O)OCc1ncn(-c2ccccc2)c1COC(=O)NC
inactive: dose: 12.5 mg/kg/injection, schedule: Q01DX005 (ip), vehicle: distilled water + Tween-80 99 % of control | dose: 25.0 mg/kg/injection, schedule: Q01DX005 (ip), vehicle: distilled water + Tween-80 95 % of control | dose: 50.0 mg/kg/injection, schedule: Q01DX005 (ip), vehicle: distilled water + Tween-80 101 % of control | dose: 100.0 mg/kg/injection, schedule: Q01DX005 (ip), vehicle: distilled water + Tween-80 101 % of control | dose: 200.0 mg/kg/injection, schedule: Q01DX005 (ip), vehicle: distilled water + Tween-80 99 % of control

COc1ccc(C2SCC(=O)N2c2nnc(C(F)(F)F)s2)c(OC)c1OC (configuration not stated)
inactive: [1] 100 % of control | [2] 90 % of control | dose: 400.0 mg/kg/injection, schedule: Q04DX002 (ip), vehicle: saline with Tween-80 93 % of control

CCN1CC2(COC)C(O)CC(OC)C34C5CC6(O)C(OC)C=C(C5C6OC(=O)c5ccc(OC)c(OC)c5)C(C(OC)C23)C14 (configuration not stated)
inactive: dose: 0.05 mg/kg/injection, schedule: Q01DX009 (ip), vehicle: Klucel (hydroxypropylcellulose) (HPC) 90 % of control | dose: 0.05 mg/kg/injection, schedule: Q01DX009 (ip), vehicle: saline with Tween-80 102 % of control | dose: 0.1 mg/kg/injection, schedule: Q01DX009 (ip), vehicle: Klucel (hydroxypropylcellulose) (HPC) 91 % of control | dose: 0.1 mg/kg/injection, schedule: Q01DX009 (ip), vehicle: saline with Tween-80 96 % of control | dose: 0.2 mg/kg/injection, schedule: Q01DX009 (ip), vehicle: Klucel (hydroxypropylcellulose) (HPC) 100 % of control | dose: 0.2 mg/kg/injection, schedule: Q01DX009 (ip), vehicle: saline with Tween-80 91 % of control | dose: 0.4 mg/kg/injection, schedule: Q01DX009 (ip), vehicle: Klucel (hydroxypropylcellulose) (HPC) 116 % of control | dose: 0.4 mg/kg/injection, schedule: Q01DX009 (ip), vehicle: saline with Tween-80 91 % of control

Cc1ccc(C)c(C(=O)CCN(C)C)c1
inactive: [7] 106 % of control | dose: 30.0 mg/kg/injection, schedule: Q01DX005 (ip), vehicle: saline 94 % of control | [6] 99 % of control and 101 % of control

c1cc2c(cc1CC1CCNC1)OCO2 (configuration not stated)
inactive: dose: 5.0 mg/kg/injection, schedule: Q01DX009 (ip), vehicle: saline 95 % of control | dose: 10.0 mg/kg/injection, schedule: Q01DX009 (ip), vehicle: saline 100 % of control | dose: 20.0 mg/kg/injection, schedule: Q01DX009 (ip), vehicle: saline 95 % of control

C[Si](C)(C)C1c2ccccc2-c2[nH]c3ccccc3c21 (configuration not stated)
inactive: dose: 6.25 mg/kg/injection, schedule: Q01DX009 (ip), vehicle: Klucel (hydroxypropylcellulose) (HPC) 101 % of control | dose: 12.5 mg/kg/injection, schedule: Q01DX009 (ip), vehicle: Klucel (hydroxypropylcellulose) (HPC) 87 % of control | dose: 25.0 mg/kg/injection, schedule: Q01DX009 (ip), vehicle: Klucel (hydroxypropylcellulose) (HPC) 102 % of control

CC(C)(C)Nc1nc2ccccc2c(=O)o1
inactive: dose: 100.0 mg/kg/injection, schedule: Q01DX001 (ip), vehicle: saline with Tween-80 101 % of control | dose: 200.0 mg/kg/injection, schedule: Q01DX001 (ip), vehicle: saline with Tween-80 106 % of control | dose: 400.0 mg/kg/injection, schedule: Q01DX001 (ip), vehicle: saline with Tween-80 116 % of control

Cc1c(NC(=O)Nc2c(Cl)cccc2Cl)c(=O)n(-c2ccccc2)n1C
inactive: dose: 50.0 mg/kg/injection, schedule: Q01DX009 (ip), vehicle: Klucel (hydroxypropylcellulose) (HPC) 102 % of control | dose: 100.0 mg/kg/injection, schedule: Q01DX009 (ip), vehicle: Klucel (hydroxypropylcellulose) (HPC) 106 % of control | dose: 200.0 mg/kg/injection, schedule: Q01DX009 (ip), vehicle: Klucel (hydroxypropylcellulose) (HPC) 97 % of control

O=S(=O)(O)Sc1ncnc2nc[nH]c12
inactive: [5] 108 % of control | dose: 75.0 mg/kg/injection, schedule: Q04DX003 (ip), vehicle: saline 100 % of control | [3] 122 % of control | dose: 150.0 mg/kg/injection, schedule: Q04DX003 (ip), vehicle: saline 98 % of control | [4] 108 % of control | dose: 300.0 mg/kg/injection, schedule: Q04DX003 (ip), vehicle: saline 108 % of control

O=N[O-].[Co].[N-]=C=S.[NH2-].[NH2-].[NH2-].[NH2-]
inactive: dose: 12.5 mg/kg/injection, schedule: Q04DX003 (ip), vehicle: saline with Tween-80 110 % of control | dose: 25.0 mg/kg/injection, schedule: Q04DX003 (ip), vehicle: saline with Tween-80 120 % of control | dose: 50.0 mg/kg/injection, schedule: Q04DX003 (ip), vehicle: saline with Tween-80 120 % of control

CN(C)c1cc[n+](C=O)cc1
inactive: dose: 3.75 mg/kg/injection, schedule: Q01DX005 (ip), vehicle: saline 102 % of control | dose: 7.5 mg/kg/injection, schedule: Q01DX005 (ip), vehicle: saline 95 % of control | [7] 100 % of control

Source: PubChem BioAssay AID330 (DTP/NCI, 2004)
